Consider one compound from patent publication US20040242459A1 (priority 2001, published 2004).

The target in one assay is T1, hPPARγ/GAL4 (Homo sapiens, UniProt P37231).
T1 construct: expressed in transfected cells; host or cells: COS-1 cells
Kind of assay: Gal-4 hPPAR transactivation assay in COS-1 cells (gamma). Format: cell-based. The note with it: two values separated by a slash in some cells. The procedure: The chimeric receptor expression constructs, pcDNA3-hPPARγ/GAL4, pcDNA3-hPPARδ/GAL4, pcDNA3-hPPARα/GAL4 were prepared by inserting the yeast GAL4 transcription factor DBD adjacent to the ligand binding domains (LBDs) of hPPARγ, hPPARδ, hPPARα, respectively. The reporter construct, pUAS(5×)-tk-luc was generated by inserting 5 copies of the GAL4 response element upstream of the herpes virus minimal thymidine kinase promoter and the luciferase reporter gene. pCMV-lacZ contains the galactosidase Z gene under the regulation of the cytomegalovirus promoter. COS-1 cells were seeded at 12×10^3 cells/well in 96 well cell culture plates in high glucose Dulbecco's modified Eagle medium (DMEM) containing 10% charcoal stripped fetal calf serum (Gemini Bio-Products, Calabasas, Calif.), nonessential amino acids, 100 units/ml Penicillin G and […] Streptomycin sulfate at 37° C. in a humidified atmosphere of 10% CO2. After 24 h, transfections were performed with Lipofectamine (GIBCO BRL, Gaithersburg, Md.) according to the instructions of the manufacturer. […] Luciferase activity in cell extracts was determined using Luciferase Assay Buffer (Promega, Madison, Wis.) in an ML3000 luminometer (Dynatech Laboratories, Chantilly, Va.). β-galactosidase activity was determined using β-D-galactopyranoside (Calbiochem, San Diego, Calif.).

Assay [1] relates to adjuvant-induced arthritis in female Lewis rats. The procedure: Nine groups of 10 rats each were injected with an emulsion containing 0.5 mg of Mycobacterium butyricum in 0.1 ml of light mineral oil, and a negative control group of 10 rats was not injected with adjuvant. Body weights, primary (injected) and contralateral (non-injected) paw volumes (determined by mercury displacement plethysmography) and lateral radiographs (obtained under Ketamine and Xylazine anesthesia) were determined before (day-1) and at various time points including 21 days following adjuvant injection. The rats were anesthetized with an intramuscular injection of 0.03-0.1 ml of a combination of Ketamine (87 mg/kg) and Xylazine (13 mg/kg) for radiographs and injection of adjuvant. Lateral to medial radiographs were made of both hind paws on days 0 and 21 for using the Faxitron (45 kVp, 30 seconds or 45 kVp, 1 second) and Kodak X-OMAT TL film, and were developed in an automatic processor. […] Specific criteria were used to establish the numerical grade of severity for each radiographic change. The maximum possible score per foot was 26. Compounds or vehicle were administered prophylactically beginning post injection of adjuvant and continuing for 21 days. The Compounds were prepared weekly, refrigerated in the dark until used, and vortex mixed immediately prior to administration. […] The liver, thymus and spleens of all rats were removed and weighed and both hind paws were removed and radiographed.
Two-factor (‘treatment’ and ‘time’) analysis of variance with repeated measures on ‘time’ were applied to the percent changes for body weight and foot volumes and to the rank-transformed radiographic total scores. A post hoc Dunnett's test was conducted to compare the effect of treatments to vehicle. A one-way analysis of variance was applied to the thymic and spleen weights followed by the Dunnett's test to compare the effect of treatments to vehicle.
Compounds or vehicle (0.5% Methocel in sterile water) were administered by oral gavage once daily for 21 days following induction of arthritis in female Lewis rats via the sub plantar injection of 0.1 ml of light mineral oil containing 0.5 mg of Mycobacterium butyricum. Control animals were not injected with adjuvant. Body weights were measured 1 day prior to (i.e. day 0) and at 14 and 21 days post induction of arthritis. The data in Table 1 represent the mean increase or decrease in body weight ±1 standard deviation for groups of 9 to 10 animals.
Compounds or vehicle (0.5% Methocel in sterile water) were administered by oral gavage once daily for 21 days following induction of arthritis in female Lewis rats via the sub plantar injection of 0.1 ml of light mineral oil containing 0.5 mg of Mycobacterium butyricum. Control animals were not injected with adjuvant.
Injected foot volumes were measured by mercury displacement plethysmography prior to induction of arthritis, and on days 4, 14 and 21 post induction of arthritis. The data represent the mean increase in foot volume ±1 standard deviation for groups of 9 to 10 animals. The extent of paw swelling in compound-treated animals was compared to the mean of that in the vehicle-treated group, and percentage inhibition was calculated for each dose level of compound.
Contralateral foot volumes were measured by mercury displacement plethysmography prior to, and at days 14 and 21 post induction of arthritis. The data represent the mean increase in foot volume ±1 standard deviation for groups of 9 to 10 animals. The extent of paw swelling in compound-treated animals was compared to the mean of that in the vehicle-treated group, and percentage inhibition was calculated for each dose level of compound.
[…] Data represent the mean weights of organs in mg ±1 standard deviation for groups of 9 to 10 animals.
Total radiographic scores were derived from examination of lateral radiographs obtained prior to, and on day 21 post induction of arthritis.

Where [2] appears, read: injected paw, same doses p.o. q.d.
[3] abbreviates: weight at necropsy, day of euthanasia 21 (Compound 1, indomethacin) or 15 (Compounds 2-6), mean ± SD.

Several values for one entry are separate records, joined by “and”; a condition that tells them apart may be missing. Equal values may be shown once. Marks after values point to notes of the source that are not given here.

T1 sequence (P37231 238-503 limits assumed): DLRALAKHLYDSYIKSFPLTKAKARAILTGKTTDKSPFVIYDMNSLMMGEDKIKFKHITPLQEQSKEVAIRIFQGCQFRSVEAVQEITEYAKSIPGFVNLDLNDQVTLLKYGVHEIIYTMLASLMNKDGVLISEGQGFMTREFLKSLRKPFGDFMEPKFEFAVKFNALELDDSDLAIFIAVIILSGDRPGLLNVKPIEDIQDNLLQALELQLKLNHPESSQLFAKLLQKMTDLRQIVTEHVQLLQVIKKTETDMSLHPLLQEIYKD
T1 sequence (P04386 1-147 partner limits assumed): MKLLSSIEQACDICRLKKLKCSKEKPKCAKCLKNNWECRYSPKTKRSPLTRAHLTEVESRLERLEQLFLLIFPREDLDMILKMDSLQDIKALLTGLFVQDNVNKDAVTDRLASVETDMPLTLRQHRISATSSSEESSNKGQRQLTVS

As usually defined, the EC50 is the concentration that produces a half-maximal response. Read a low EC50 as greater potency. For the compound `CCCc1cc(Oc2ccccc2)ccc1OCCc1cc2cc(CC(=O)O)ccc2[nH]1` [Compound 2, {2-[2-(4-phenoxy-2-propylphenoxy)ethyl]-1H-indol-5-yl}acetic acid], the EC50 on hPPARγ/GAL4 is 0.18 µM and 0.05 µM. Also, the “Change in Secondary Foot Volume Day 14-0” value in assay [1] (contralateral paw, p.o. q.d., Compounds 1, 2, 4, 6 30 mg/kg/day, Compound 3 50, Compound 5 100, indomethacin 2, mean ± SD) was 786 ± 220 µL. Moreover, the “Secondary Foot Volume % Inhibition Compared to Vehicle Day 14-0” value in assay [1] (contralateral paw, same doses p.o. q.d.) worked out at 0%. The “Change in Primary Foot Volume Day 4-0” value in assay [1] (injected paw, p.o. q.d., Compounds 1, 2, 4, 6 30 mg/kg/day, Compound 3 50, Compound 5 100, indomethacin 2, mean ± SD) came to 1642 ± 386 µL. In addition, in assay [1] (setting [2]), the “Primary Foot Volume % Inhibition Compared to Vehicle Day 4-0” value worked out at 18.6% and the “Primary Foot Volume % Inhibition Compared to Vehicle Day 14-0” value was determined as 21.3%. Moreover, in assay [1] (injected paw, same doses p.o. q.d., mean ± SD), the “Change in Primary Foot Volume Day 14-0” value came to 1875 ± 418 µL. Moreover, the “change in body weight Day 14-0” value in assay [1] (p.o. q.d., Compounds 1, 2, 4, 6 30 mg/kg/day, Compound 3 50, Compound 5 100, indomethacin 2 mg/kg/day, mean ± SD) is 0.8 ± 7.3**^++ grams. Also, the “prevention of swelling of primary or secondary paws” value in assay [1] (up to day 14, rats then euthanized) is listed as “failed to prevent swelling of either the primary or secondary paws”. For the same compound, in assay [1] (setting [3]), the “Spleen” value was 590.8 ± 82.1 mg and the “Thymus” value was 168.7 ± 44.6 mg.
